Results as given in patent publication US20050221381A1, “Method for isolating ligands” (priority 2002, published 2005).
“Also recorded” adds a separate entry of the source.

Legend:
CMV = details: cited from earlier work
[1] = in vivo; cited from earlier work
[2] = test system: CMV mutants resistant to Ganciclovir, Cidofuvir and Foscarnet; details: cited from earlier work
[3] = test system: CD8+ T-cells, HLA-A*0201 positive T2 cells; details: interferon-gamma ELIspot
HLA-A2 = HLA-A2 (Homo sapiens, UniProt P04439, D140Y/D185E/D98H/E176V/E277Q/G131W/G231S/I119V/I121R/I166T/I218V/L300P/L318F/N151K/N90K/P208A/P217A/Q86G/Q94H/R138H/R169H/T345S); details: cited from earlier work
[4] = molecular target: T1, soluble DRB1*0401 molecules (DR4) (Homo sapiens, UniProt P01903+P01911, A100K/A169T/F76Y/I96L/K127E/L162R/M171V/N62H/P40V/Q125Y/R42H/S133A/S149N/S66Y/V115G/V209L/W38E); type: binding; set-up: key to DR4 binding: +++: high binding affinity; ++: moderate binding affinity; +: low binding affinity; −: no binding; details: SDS-stability assay
T1 construct: Soluble HLA class I A*0201 and HLA class II DRA1*0101/DRB1*0101/Ii, DRA1*0101/DRB1*0401/Ii and DRA1*0101/DRB1*0404/Ii molecules were expressed in SC-2 cells; made in house; host or cells: SC-2 cells

isolated CD4+ T cells = assay: Synthetic IFN-γ Elispot assay with sHLA DRB1*0401 and anti CD28; type: cell-based, human; details: sHLA DRB1*0401 loaded with peptide, vs negative control peptide p84 (FIG. 5a)
[5] = molecular target: T2, soluble DRB1*0401 molecules (Homo sapiens, UniProt P01903+P01911, A100K/A169T/F76Y/I96L/K127E/L162R/M171V/N62H/P40V/Q125Y/R42H/S133A/S149N/S66Y/V115G/V209L/W38E); assay: Epitope capture from peptide mixtures, gel filtration and MALDI-TOF MS of bound peptides; type: binding
T2 construct: Soluble HLA class I A*0201 and HLA class II DRA1*0101/DRB1*0101/Ii, DRA1*0101/DRB1*0401/Ii and DRA1*0101/DRB1*0404/Ii molecules were expressed in SC-2 cells; made in house; host or cells: SC-2 cells
Source text: After peptide binding reaction with soluble HLA molecules, HLA-peptide complexes were separated from free peptides by gel-filtration chromatography on Superdex-200 column (AKTAdesign, Amersham Pharmacia Biotech). HLA-containing fractions were collected, and bound peptides were reconstituted from the complexes by adding TFA to the final concentration of 1%. Peptides were desolted by Ziptip purification and analyzed by MALDI-TOF mass-spectrometry.
Second, the ability to capture peptides binding to HLA class II molecules from the mixture of two high affinity ligands was tested. The binding reaction contained 1 μM of soluble DRB1*0401 molecules and 5 μM of each YAR and 1242 peptide. After the HLA-peptide complexes were formed, they were separated from the excess of free peptides by gel filtration chromatography. Fractions containing MHC molecules were collected. Bound peptides were eluted from the complexes and analyzed by mass-spectrometry.
Third, it was investigated if the binding capacity of the high affinity ligand would be influenced by the excess of low affinity peptide. […] Peptide binding was assessed by SDS-stability assay and verified by MS analysis (FIG. 3).
The final concentration of each peptide in binding reaction was 5 μM, except 1236 added in 55 μM, meaning that the concentration of each individual binding peptide was 20-fold lower than final concentration of all peptides. DRB1*0401 molecules were added to 1 μM. The formation of MHC-peptide complexes was evaluated as described above, using single peptides as controls (FIG. 4). […] The result of this analysis yielded the two peptides with highest binding affinities: 1242 and YAR (see Table 1). The peptides with moderate and/or low affinities were not found in the complexes, probably due to the high concentration of strong competitors used in this assay.

CC(C)[C@H](N)C(=O)OCC(CO)OCn1cnc2c(=O)nc(N)[nH]c21 (stereo partly drawn) [Valganciclovir]
Incidence of CMV disease (CMV; kidney transplant patients, given for three months): reduced the incidence of CMV disease
Proportion of patients with biopsy-proven rejection (CMV; six months after transplantation): significant reduction
Oral bioavailability [1]: markedly increased

Fomivirsen
Efficacy against multidrug resistant mutants [2]: effective against such mutants

RLLQTGIHV
Confirmation as HLA-A*0201 epitope / induction of functional T-cells (in words) [3]: induce functional T-cells
Binding to HLA-A2 / stabilisation of HLA-A2/β2m/peptide complex (HLA-A2): can stabilize; also recorded: has been demonstrated

YNINISLPSYYPDQKSL [Peptide 1242]
Binding to soluble DRB1*0401 molecules (in words) [4]: highest
DR4 binding ([4]; direct binding of individual peptides, compared with YAR and HA306-318): +++
Number of induced IFN-γ spots (isolated CD4+ T cells): significantly above the spontaneous IFN-γ secretion
Formation of stable MHC-complexes in presence of excess low affinity peptide ([5]; 1242 5 to 50 μM, 100 μM peptide 1236 (2-20 fold excess), 1 μM DRB1*0401): does not impede the formation of stable MHC-complexes
Peptides captured from pool of 10 peptides, MS analysis ([5]; each peptide 5 μM, 1236 55 μM, DRB1*0401 1 μM): captured by DR4 molecules
Peptides found in complexes with MHC molecules by MS ([5]; mixture of two ligands, 5 μM each, 1 μM DRB1*0401): revealed in the complexes with MHC molecules
